From paper PMC11650849, “Brain endothelial permeability, transport, and flow assessed over 10 orders of magnitude using the in situ brain perfusion technique” (Fluids and Barriers of the CNS, 2024)
Read-outs that look alike come from different tables or passages of the source.

Columns and labels:
[1] = for Brain Kin: calculated at brain blood flow […] and rat serum fu; for Extraction (unbound) / Brain vascular extraction (total): calculated at brain blood flow […]; for Extraction (unbound): free drug; for Brain vascular extraction (total): with rat serum fu; for Maximal flow—90% extraction, PcS/2.3: pH 7.4
[2] = Neutral fraction at pH 7.4 calculated from pKa; type: physicochemical; settings: neutral fraction at perfusion fluid pH 7.40, calculated from pKa
[3] = rat in vivo measurements; cited from earlier work
[4] = rat in vivo measurements; cited from earlier work; remark: listed apart in the source
[5] = In situ rat brain perfusion (brain uptake Kin, extraction E, BBB PS); settings: for Log Pc: Pc in cm/s; for Log Po: Po in cm/s; for Log PoS: PoS in mL/s/g; for Pc / Po: S assumed 100 cm^2/g; for PcS: cerebral cortex, S = physiological saline, AB = artificial blood
[6] = ref Hansch et al. [123], Avdeef [46] or other sources, cited from earlier work; for Log Poct: octanol partition coefficient
[7] = rat, in vivo
[8] = rat
[9] = intrinsic PS of neutral solute, PoS = PcS/fn, flow 0.1–[…]

Compound	Brain Kin [1]	Extraction (unbound) [1]	Brain vascular extraction (total) [1]	fn (%) [2]	fu,.p [3]	Brain Vu,br [4]	Log Pc [5]	Log Po [5]	Log PoS [5]	Pc [5]	Po [5]	PoS ([5]; brain vascular intrinsic PoS)	PcS ([5]; flow 0.1–[…])	PoS [5, 9]	Log Poct [6]	Log Doct pH=7.4 [6]	half-life ([8]; brain)	other results
CC(O)CO (stereo not shown) [1,2-Propanediol]	0.0112 mL/s/g	8.6%	8.6%	100%	1.00	1.04 mL/g	−4.67	−4.67	−2.67	21.6 ×10⁻⁶ cm/s	21.6 ×10⁻⁶ cm/s	0.00216 mL/s/g	0.0022 mL/s/g	0.00216 mL/s/g	−1.04	−1.04		
OCCCO [1,3 Propanediol]				100%	1.00	1.02 mL/g	−4.29	−4.29	−2.29			0.00516 mL/s/g	0.0052 mL/s/g	0.00516 mL/s/g	−0.92	−0.92		Pc [7]: 51.6 ×10⁻⁶ cm/s; Po [7]: 5.16e-05 cm/s
OCCCCCCO [1,6-Hexanediol]	0.0182 mL/s/g	96.3%	75.9%	100%	0.9	1.27 mL/g									0.83	0.83	0.72 min	Log Pc ([7]; pH 7.4): −3.42; Log PoS ([7]; pH 7.4): −1.42; Pc ([7]; pH 7.4): 379 ×10⁻⁶ cm/s; PcS ([7]; pH 7.4): 0.038 mL/s/g; PoS ([7]; pH 7.4): 0.0379 mL/s/g; Log Po ([7]; pH 7.4): −3.42; Po ([7]; pH 7.4): 0.000379 cm/s
Cc1c(N(C)C)c(=O)n(-c2ccccc2)n1C [Aminopyrine]	0.0201 mL/s/g	89.8%	83.9%	99.0%	0.80	1.67 mL/g											0.76 min	
Cn1c(=O)c2c(ncn2C)n(C)c1=O [Caffeine]	0.0152 mL/s/g	64.7%	63.2%	100%		1.28 mL/g											0.94 min	
OC[C@@H](O)[C@@H](O)CO [Erythritol]	9.27e-05 mL/s/g	0.15%	0.15%	100%	1.00	0.50 mL/g									−2.29	−2.29	160 min	Log Pc ([7]; pH 7.4): −6.49; Log PoS ([7]; pH 7.4): −4.49; Pc ([7]; pH 7.4): 0.324 ×10⁻⁶ cm/s; PcS ([7]; pH 7.4): 3.2e-05 mL/s/g; PoS ([7]; pH 7.4): 3.24e-05 mL/s/g; Log Po ([7]; pH 7.4): −6.49; Po ([7]; pH 7.4): 3.24e-07 cm/s
CNCCC(Oc1ccc(C(F)(F)F)cc1)c1ccccc1 (stereo not shown) [Fluoxetine]	0.0105 mL/s/g	100%	21.3%	0.27%	0.028	250 mL/g									4.50		15.8 min	
CC(C(=O)O)c1ccc(-c2ccccc2)c(F)c1 (stereo not shown) [Flurbiprofen]	0.000144 mL/s/g	61.6%	0.60%	0.06%	6.3E−03	7.76 mL/g									3.99	0.91	3.9 min	Log Pc ([7]; pH 7.4): −3.64; Log PoS ([7]; pH 7.4): 1.58; Pc ([7]; pH 7.4): 230 ×10⁻⁶ cm/s; PcS ([7]; pH 7.4): 0.023 mL/s/g; PoS ([7]; pH 7.4): 38.2 mL/s/g; Log Po ([7]; pH 7.4): −0.42; Po ([7]; pH 7.4): 0.38 cm/s
OCC(O)CO [Glycerol]	1.7e-06 mL/s/g	0.34%	0.34%	100%	1.00	1.04 mL/g									−1.76	−1.76	145 min	Log Pc ([7]; pH 7.4): −6.08; Log PoS ([7]; pH 7.4): −4.08; Pc ([7]; pH 7.4): 0.829 ×10⁻⁶ cm/s; PcS ([7]; pH 7.4): 8.3e-05 mL/s/g; PoS ([7]; pH 7.4): 8.29e-05 mL/s/g; Log Po ([7]; pH 7.4): −6.08; Po ([7]; pH 7.4): 8.29e-07 cm/s
NC(=O)CI [Iodoacetamide]				100%	0.92	1.11 mL/g	−4.04	−4.04	−2.04	91.7 ×10⁻⁶ cm/s	91.7 ×10⁻⁶ cm/s	0.00917 mL/s/g	0.0092 mL/s/g	0.00917 mL/s/g	−0.19	−0.19		
O=C[C@@H](O)[C@H](O)[C@@H](O)[C@@H](O)CO [L-Glucose]				100%	1.00	0.13 mL/g	−6.90	−6.90	−4.90				1.25e-05 mL/s/g	1.25e-05 mL/s/g	−3.18	−3.18		Pc [7]: 0.125 ×10⁻⁶ cm/s; Po [7]: 1.25e-07 cm/s
O=C1Nc2ccc(Cl)cc2C(c2ccccc2Cl)=NC1O (stereo not shown) [Lorazepam]				100%	0.16	15.87 mL/g	−2.52	−2.52	−0.52	3000 ×10⁻⁶ cm/s	3000 ×10⁻⁶ cm/s		0.30 mL/s/g	0.30 mL/s/g				Maximal flow—90% extraction, PcS/2.3 [1]: 0.13 mL/s/g; half-life [8]: 1.39 min
CO [Methanol]				100%	1.00	1.06 mL/g	−3.56	−3.56	−1.56	278 ×10⁻⁶ cm/s	278 ×10⁻⁶ cm/s	0.0278 mL/s/g	0.028 mL/s/g	0.0278 mL/s/g	−0.52	−0.52		
CNC(N)=O [Methylurea]	0.000563 mL/s/g	0.79%	0.79%	100%	1.00	1.04 mL/g	−5.72	−5.72	−3.72	1.91 ×10⁻⁶ cm/s	1.91 ×10⁻⁶ cm/s	0.000191 mL/s/g	0.00019 mL/s/g	0.000191 mL/s/g	−1.40	−1.40		
CCCCNS(=O)(=O)c1ccccc1 [N-butyl-benzene sulfonamide]				100%	0.30	10 mL/g	−2.42	−2.42	−0.42	3800 ×10⁻⁶ cm/s	3800 ×10⁻⁶ cm/s	0.38 mL/s/g	0.38 mL/s/g	0.38 mL/s/g	2.20	2.20		Maximal flow—90% extraction, PcS/2.3 [1]: 0.17 mL/s/g
CC(=O)[C@H]1CC[C@H]2[C@@H]3CCC4=CC(=O)CC[C@]4(C)[C@H]3CC[C@]12C [Progesterone]				100%	0.03	28.6 mL/g									3.48	3.48	0.42 min	
CC(C)NCC(O)COc1cccc2ccccc12 (stereo not shown) [Propranolol]	0.00806 mL/s/g	98.3%	30.5%	0.74%	0.09	27.8 mL/g											3.93 min	
OC[C@H]1O[C@@](CO)(O[C@H]2O[C@H](CO)[C@@H](O)[C@H](O)[C@H]2O)[C@@H](O)[C@@H]1O [Sucrose]		2.00E-04%	2.00E-04%	100%	1.00	0.05 mL/g									−3.57	−3.57	120 min	
CC(=O)CC(c1ccccc1)c1c(O)c2ccccc2oc1=O (stereo not shown) [Warfarin]				0.01%	8.0E−03	3.03 mL/g												Log Pc ([7]; pH 7.4): −4.15; Log PoS ([7]; pH 7.4): 1.71; Pc ([7]; pH 7.4): 70.6 ×10⁻⁶ cm/s; PcS ([7]; pH 7.4): 0.0071 mL/s/g; PoS ([7]; pH 7.4): 51.2 mL/s/g; Log Po ([7]; pH 7.4): −0.29; Po ([7]; pH 7.4): 0.51 cm/s
Inulin				89.0%	1.00	0.02 mL/g	−8.12	−8.12	−6.12	0.0075 ×10⁻⁶ cm/s	0.0075 ×10⁻⁶ cm/s	7.5e-07 mL/s/g	7.5e-07 mL/s/g	7.5e-07 mL/s/g	−4.36	−4.13		
